Experimental data reported in US12054560B2, “Bifunctional molecules recruiting antibodies and targeting cancer cells” (JIANGNAN UNIVERSITY, priority 2017, dated 2024).
Bridge positions count the residues as written; N and C are the ends. Ends that are not written are not given here.

Legend:
[1] = test system: HUVEC (high expression of CD13); assay: Flow cytometry, recruitment of anti-DNP antibody on HUVEC cells; type: cell-based; settings: 250 nM, anti-DNP antibody 20 μg/mL, FIG. 9
Method: Cell assay implementation: cell culture: commercial cells HUVEC (high expression of CD13) was cultured in DMEM complete medium. All cell culture conditions were 37° C., 5% CO2. Flow cytometry assay: (1) The cells were digested with trypsin, resuspended in flow medium diluted to 1×10^5 cells. 400 μL of cells (40,000 cells) were added to a sterile EP tube. (2) NGR oligopeptide (NGR peptide, amino acid sequence: GGG-cyclo-(CNGRC) (SEQ ID NO:8)) or NGR-DNP were added at a final concentration of 250 nM. In the negative control group, cells were treated with PBS. The cells were added anti-DNP (anti-DNP) antibody at a concentration of 20 μg/mL in all groups, incubate on ice for 1 h. then the cells were washed and incubated with fluorescent secondary antibody for 0.5 h. (3) The cells were thoroughly washed gently with a flow buffer, resuspended, and analyzed by instruments.

HUVEC cells [2] = assay: ADCC assay on HUVEC cells; type: cell-based; settings: 250 nM, anti-DNP antibody, PBMC, LDH method, FIG. 9
Method: ADCC assay implementation: (1) HUVEC cells were seeded in 96-well plates at a concentration of 10,000 cells/well. After the cells were fully attached, added with NGR oligopeptide (NGR peptide, amino acid sequence: GGG-cyclo-(CNGRC) (SEQ ID NO:8)) or NGR-DNP compound at a final concentration of 250 nM and immediately added a certain concentration of anti-DNP antibody. (2) After incubation for a period of time, freshly extracted PBMC cells were added at a certain effect target ratio for a certain period of time. (3) The supernatant was removed by centrifugation, and cytotoxicity was measured by the LDH method.

HUVEC cells [3] = assay: CDC assay on HUVEC cells; type: cell-based; settings: 250 nM, anti-DNP antibody, 10% complement, cck8 method, FIG. 9
Method: CDC assay implementation: (1) HUVEC cells were seeded in 96-well plates at a concentration of 5,000 cells/well. After the cells were fully attached, added with NGR oligopeptide (NGR peptide, amino acid sequence: GGG-cyclo-(CNGRC) (SEQ ID NO:8)) or NGR-DNP compound at a final concentration of 250 nM and added a certain concentration of anti-DNP antibody at the same time. After 2 hours of incubation at 37° C., a final concentration of 10% of the complement solution was added and incubated for 1 hour at 37° C. After the incubation, the cell viability was measured by the cck8 method.

[4] = test system: SKBR3 (HER2 positive) cells; assay: Flow cytometry, recruitment of anti-Rha IgG on SKBR3 cells; type: cell-based; settings: 250 nM, Alexa 488-conjugated rabbit anti-Rha IgG, FIG. 5
Method: SKBR3 (HER2 positive) and MCF7 cells (HER2 negative) were grown in DMEM supplemented with 10% FBS, 1% penicillin-streptomycin. All cells were cultured at 37° C. in a 5% CO2 humidified atmosphere.
(1) Cells were cultured and detached with trypsin-EDTA and then resuspended to 1.0×10^5 cells/mL. Forty thousand of these cells were added into tubes. (2) Nanobody C7b and Rha conjugated C7b were then added to a final concentration of 250 nM, followed which Alexa 488-conjugated rabbit anti-Rha IgG antibodies were added. In the negative control group, cells were treated with PBS instead of nanobody. These cells were incubated on ice for 60 min, (3) washed with flow cytometry buffer and then analyzed using an Accuri C6 flow cytometer.

CD13 receptor, P15144 = target: T1, CD13 receptor, P15144; assay: cell-based or functional assay
T1 chain: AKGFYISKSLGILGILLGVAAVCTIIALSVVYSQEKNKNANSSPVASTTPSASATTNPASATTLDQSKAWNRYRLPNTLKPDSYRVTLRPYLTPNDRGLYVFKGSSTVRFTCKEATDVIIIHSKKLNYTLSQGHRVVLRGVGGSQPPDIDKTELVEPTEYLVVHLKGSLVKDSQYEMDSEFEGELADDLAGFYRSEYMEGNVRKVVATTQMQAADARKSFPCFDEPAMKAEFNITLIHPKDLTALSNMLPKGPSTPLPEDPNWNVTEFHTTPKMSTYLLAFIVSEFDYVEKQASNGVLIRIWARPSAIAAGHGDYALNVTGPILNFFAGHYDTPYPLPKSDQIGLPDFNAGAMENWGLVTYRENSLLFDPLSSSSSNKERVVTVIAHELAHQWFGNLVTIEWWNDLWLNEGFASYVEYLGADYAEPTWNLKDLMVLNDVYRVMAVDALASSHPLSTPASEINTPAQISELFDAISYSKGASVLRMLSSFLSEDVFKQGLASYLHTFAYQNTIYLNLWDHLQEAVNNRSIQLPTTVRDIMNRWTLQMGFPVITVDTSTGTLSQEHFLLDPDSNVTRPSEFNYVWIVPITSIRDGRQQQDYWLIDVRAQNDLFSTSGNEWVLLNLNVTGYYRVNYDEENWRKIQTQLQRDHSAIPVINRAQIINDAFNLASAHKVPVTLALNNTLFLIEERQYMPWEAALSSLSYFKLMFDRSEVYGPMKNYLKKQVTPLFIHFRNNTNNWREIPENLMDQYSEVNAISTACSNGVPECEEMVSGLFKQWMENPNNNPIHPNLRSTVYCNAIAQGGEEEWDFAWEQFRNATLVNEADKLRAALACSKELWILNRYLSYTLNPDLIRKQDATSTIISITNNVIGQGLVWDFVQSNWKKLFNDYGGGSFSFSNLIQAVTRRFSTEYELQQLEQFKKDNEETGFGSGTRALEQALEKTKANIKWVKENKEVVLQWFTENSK

NGR-DNP: DNP-TEG-COOH coupled to peptide GGGCNGRC, oxidized with iodine to the cyclic form (GGGCNGRC-OH; disulfide 4-8 (inferred); also: DNP-TEG-COOH coupled to peptide, site not given here)
recruitment of antibodies and targeting of tumor cells [1]: can recruit antibodies and target tumor cells
ADCC cell lysis rate (HUVEC cells [2]): approximately 60%
CDC cell lysis rate (HUVEC cells [3]): approximately 60%

B1: C7b: anti-HER2 nanobody C7b, SEQ ID NO: 2 (related NCBI sequence ID: AFN61318.1) (protein)
VHH: MQVQLVQSGGGLVQAGGSLRLSCAASGRTFSSYAMAWFRQAPGKEREFVAAISWSGANIYVADSVKGRFTISRDNAKDTVYLQMNSLKPEDTAVYYCAVKLGFAPVEERQYDYWGQGTQVTVSSLPETGG
modifications: The HER2-specific nanobody C7b sequence was genetically engineered to contain at its C-terminus a sorting signal for further sortase A-mediated ligation.
fluorescence intensity increase compared to negative control (accumulation of anti-Rha IgGs on cells) [4]: no fluorescence intensity increase

GGGCNGRC (modifications not checked) [NGR-DNP]
CDC and ADCC cell lysis rate (CD13 receptor, P15144): 60%
